{"source": "patent US20250258179A1", "about": "“Method for Estimating Meal Component Bioavailability” (The Texas A&M University System, priority 2024, published 2025)", "origin": "cited, not measured here", "test_system": "critically ill patients", "conditions": "recently shown", "data": [{"compound": "CC(C)(O)CC(=O)O", "note": "[HMB, hydroxy-methylbutyric acid]", "values": [{"measurement": "protein breakdown", "value": "reduction in protein breakdown"}]}]}
